Data: patent US4396613A, “23-Ester derivatives of DMT and method of using same” (Eli Lilly and Company, priority 1981, dated 1983)
In brackets after ≈: the same amount, converted by molar mass.

Experiments:
Assay type in all cases: cell-based
[1] = system: Staphylococcus aureus V41; experiment: standard agar-dilution assay (MIC); conditions: Staphylococcus aureus V41, penicillin-resistant strain, unit assumed
Experimental: (§1) The MIC's in Table II were determined by standard agar-dilution assays. The MIC's in Table III were obtained using a conventional broth-dilution microtiter test.
^b Penicillinresistant strain

[2] = system: Staphylococcus aureus X400; experiment: standard agar-dilution assay (MIC); conditions: Staphylococcus aureus X400, methicillin-resistant strain, unit assumed
Experimental: as §1
^c Methicillinresistant-strain

[3] = system: Haemophilus influenzae Holt; experiment: standard agar-dilution assay (MIC); conditions: ampicillin-sensitive strain, unit assumed
Experimental: as §1

[4] = system: Haemophilus influenzae R252; experiment: standard agar-dilution assay (MIC); conditions: Haemophilus influenzae R252, ampicillin-resistant strain, unit assumed
Experimental: as §1

[5] = system: Staphylococcus aureus S13E; experiment: standard agar-dilution assay (MIC); conditions: unit assumed
Experimental: as §1

[6] = system: Staphylococcus aureus X1.1; experiment: standard agar-dilution assay (MIC); conditions: unit assumed
Experimental: as §1

[7] = system: Staphylococcus epidermidis EPI1; experiment: standard agar-dilution assay (MIC); conditions: unit assumed
Experimental: as §1

[8] = system: Staphylococcus epidermidis EPI2; experiment: standard agar-dilution assay (MIC); conditions: unit assumed
Experimental: as §1

Streptococcus Group 9960 = experiment: standard agar-dilution assay (MIC); conditions: unit assumed
Experimental: as §1

[9] = system: Streptococcus Group D X66; experiment: standard agar-dilution assay (MIC); conditions: unit assumed
Experimental: as §1

[10] = system: Streptococcus pyogenes C203; experiment: standard agar-dilution assay (MIC); conditions: unit assumed
Experimental: as §1

[11] = system: Streptococcus pneumoniae Park I; conditions: agar dilution, unit assumed
Experimental: as §1

Mycoplasma gallisepticum = experiment: conventional broth-dilution microtiter test (MIC); conditions: unit assumed
Experimental: as §1

Mycoplasma hyorhinis = experiment: conventional broth-dilution microtiter test (MIC); conditions: unit assumed
Experimental: as §1

[12] = system: Pasteurella multocida 17E; experiment: conventional broth-dilution microtiter test (MIC); conditions: bovine isolate, unit assumed
Experimental: as §1

[13] = system: Pasteurella multocida 60A; experiment: conventional broth-dilution microtiter test (MIC); conditions: avian isolate, unit assumed
Experimental: as §1

Staphylococcus aureus = experiment: conventional broth-dilution microtiter test (MIC); conditions: unit assumed
Experimental: as §1

Streptococcus sp. 80 = experiment: conventional broth-dilution microtiter test (MIC); conditions: unit assumed
Experimental: as §1

Mycoplasma synoviae = experiment: conventional broth-dilution microtiter test (MIC); conditions: unit assumed
Experimental: as §1

SMILES	MIC [1] [µg/mL]	MIC [2] [µg/mL]	MIC [3] [µg/mL]	MIC [4] [µg/mL]	MIC [5] [µg/mL]	MIC [6] [µg/mL]	MIC [7] [µg/mL]	MIC [8] [µg/mL]	MIC (Streptococcus Group 9960) [µg/mL]	MIC [9] [µg/mL]	MIC [10] [µg/mL]	MIC [11] [µg/mL]	MIC (Mycoplasma gallisepticum) [µg/mL]	MIC (Mycoplasma hyorhinis) [µg/mL]	MIC [12] [µg/mL]	MIC [13] [µg/mL]	MIC (Staphylococcus aureus) [µg/mL]	MIC (Streptococcus sp. 80) [µg/mL]	MIC (Mycoplasma synoviae) [µg/mL]
CCC1OC(=O)CC(O)C(C)C(OC2OC(C)C(OC3CC(C)(O)C(O)C(C)O3)C(N(C)C)C2OC(C)=O)C(CC=O)CC(C)C(=O)C=CC(C)=CC1COC(=O)C(Cl)(Cl)Cl (stereo not shown) [Compound 16]	2 (≈ 2.15 µM)	4 (≈ 4.3 µM)	2 (≈ 2.15 µM)	2 (≈ 2.15 µM)	1 (≈ 1.08 µM)	1 (≈ 1.08 µM)	1 (≈ 1.08 µM)	4 (≈ 4.3 µM)	1 (≈ 1.08 µM)	1 (≈ 1.08 µM)	0.5 (≈ 0.538 µM)	0.03 (≈ 0.0323 µM)	0.39 (≈ 0.42 µM)	3.12 (≈ 3.36 µM)	6.25 (≈ 6.73 µM)	12.5 (≈ 13.5 µM)	1.56 (≈ 1.68 µM)	0.39 (≈ 0.42 µM)	
CCC1OC(=O)CC(O)C(C)C(OC2OC(C)C(OC3CC(C)(O)C(O)C(C)O3)C(N(C)C)C2O)C(CC=O)CC(C)C(=O)C=CC(C)=CC1COC(=O)n1ccnc1 (stereo not shown) [Compound 22]	1 (≈ 1.2 µM)	1 (≈ 1.2 µM)	16 (≈ 19.1 µM)	8 (≈ 9.57 µM)	0.5 (≈ 0.598 µM)	0.5 (≈ 0.598 µM)	0.5 (≈ 0.598 µM)	0.5 (≈ 0.598 µM)	0.5 (≈ 0.598 µM)	1 (≈ 1.2 µM)	0.25 (≈ 0.299 µM)		3.12 (≈ 3.73 µM)	1.56 (≈ 1.87 µM)	12.5 (≈ 15 µM)	25 (≈ 29.9 µM)	6.25 (≈ 7.48 µM)	1.56 (≈ 1.87 µM)	1.56 (≈ 1.87 µM)
CCC1OC(=O)CC(O)C(C)C(OC2OC(C)C(OC3CC(C)(O)C(O)C(C)O3)C(N(C)C)C2OC(C)=O)C(CC=O)CC(C)C(=O)C=CC(C)=CC1COC(=O)CCc1ccccc1 (stereo not shown) [Compound 13]	1 (≈ 1.09 µM)	1 (≈ 1.09 µM)	2 (≈ 2.18 µM)	2 (≈ 2.18 µM)	0.5 (≈ 0.546 µM)	0.25 (≈ 0.273 µM)	1 (≈ 1.09 µM)	1 (≈ 1.09 µM)	0.5 (≈ 0.546 µM)	0.5 (≈ 0.546 µM)	0.25 (≈ 0.273 µM)	0.015 (≈ 0.0164 µM)	≤ 0.048	3.12 (≈ 3.41 µM)	1.56 (≈ 1.7 µM)	12.5 (≈ 13.6 µM)	0.78 (≈ 0.851 µM)	≤ 0.048	
CCC1OC(=O)CC(O)C(C)C(OC2OC(C)C(OC3CC(C)(O)C(O)C(C)O3)C(N(C)C)C2OC(C)=O)C(CC=O)CC(C)C(=O)C=CC(C)=CC1COC(=O)Cc1ccc(Cl)cc1 (stereo not shown) [Compound 14, 2'-O-Acetyl-23-O-(p-chlorophenylacetyl)-DMT]	2 (≈ 2.14 µM)	2 (≈ 2.14 µM)	4 (≈ 4.27 µM)	4 (≈ 4.27 µM)	1 (≈ 1.07 µM)	0.5 (≈ 0.534 µM)	1 (≈ 1.07 µM)	2 (≈ 2.14 µM)	1 (≈ 1.07 µM)	1 (≈ 1.07 µM)	0.5 (≈ 0.534 µM)		< 0.048	6.25 (≈ 6.67 µM)	3.12 (≈ 3.33 µM)	6.25 (≈ 6.67 µM)	0.39 (≈ 0.416 µM)	0.78 (≈ 0.833 µM)	0.78 (≈ 0.833 µM)
CCC1OC(=O)CC(O)C(C)C(OC2OC(C)C(OC3CC(C)(O)C(O)C(C)O3)C(N(C)C)C2OC(C)=O)C(CC=O)CC(C)C(=O)C=CC(C)=CC1COC(=O)Cc1ccccc1 (stereo not shown) [Compound 9, 2'-O-Acetyl-23-O-phenylacetyl-DMT]	0.5 (≈ 0.554 µM)	0.5 (≈ 0.554 µM)	4 (≈ 4.43 µM)	4 (≈ 4.43 µM)	0.5 (≈ 0.554 µM)	0.5 (≈ 0.554 µM)	0.5 (≈ 0.554 µM)	0.5 (≈ 0.554 µM)	0.25 (≈ 0.277 µM)	0.5 (≈ 0.554 µM)	0.125 (≈ 0.139 µM)	0.015 (≈ 0.0166 µM)	≤ 0.048	0.78 (≈ 0.865 µM)	3.12 (≈ 3.46 µM)	6.25 (≈ 6.93 µM)	0.195 (≈ 0.216 µM)	≤ 0.048	
CCC1OC(=O)CC(O)C(C)C(OC2OC(C)C(OC3CC(C)(O)C(O)C(C)O3)C(N(C)C)C2OC(C)=O)C(CC=O)CC(C)C(=O)C=CC(C)=CC1COC(=O)COc1ccccc1 (stereo not shown) [Compound 12, 2'-O-Acetyl-23-O-phenoxyacetyl-DMT]	0.25 (≈ 0.272 µM)	0.5 (≈ 0.545 µM)	16 (≈ 17.4 µM)	8 (≈ 8.71 µM)	0.5 (≈ 0.545 µM)	0.25 (≈ 0.272 µM)	0.5 (≈ 0.545 µM)	0.5 (≈ 0.545 µM)	0.5 (≈ 0.545 µM)	0.5 (≈ 0.545 µM)	0.125 (≈ 0.136 µM)		0.097 (≈ 0.106 µM)	6.25 (≈ 6.81 µM)	6.25 (≈ 6.81 µM)	6.25 (≈ 6.81 µM)	0.39 (≈ 0.425 µM)	0.195 (≈ 0.212 µM)	0.78 (≈ 0.85 µM)
CCC1OC(=O)CC(O)C(C)C(OC2OC(C)C(OC3CC(C)(O)C(O)C(C)O3)C(N(C)C)C2OC(C)=O)C(CC=O)CC(C)C(=O)C=CC(C)=CC1COC(=O)NCc1ccccc1 (stereo not shown) [Compound 30]	1 (≈ 1.09 µM)	0.5 (≈ 0.545 µM)	8 (≈ 8.72 µM)	4 (≈ 4.36 µM)	0.5 (≈ 0.545 µM)	0.5 (≈ 0.545 µM)	0.5 (≈ 0.545 µM)	0.5 (≈ 0.545 µM)	0.5 (≈ 0.545 µM)	0.5 (≈ 0.545 µM)	0.5 (≈ 0.545 µM)		0.39 (≈ 0.425 µM)	1.56 (≈ 1.7 µM)		12.5 (≈ 13.6 µM)		0.78 (≈ 0.851 µM)	0.78 (≈ 0.851 µM)
CCC1OC(=O)CC(O)C(C)C(OC2OC(C)C(OC3CC(C)(O)C(O)C(C)O3)C(N(C)C)C2OC(C)=O)C(CC=O)CC(C)C(=O)C=CC(C)=CC1COC(=O)Cc1ccc([N+](=O)[O-])cc1 (stereo not shown) [Compound 15, 2'-O-Acetyl-23-O-(p-nitrophenylacetyl)-DMT]	0.5 (≈ 0.528 µM)	0.5 (≈ 0.528 µM)	8 (≈ 8.45 µM)	4 (≈ 4.22 µM)	0.25 (≈ 0.264 µM)	0.25 (≈ 0.264 µM)	0.5 (≈ 0.528 µM)	0.5 (≈ 0.528 µM)	0.25 (≈ 0.264 µM)	0.25 (≈ 0.264 µM)	0.125 (≈ 0.132 µM)		0.39 (≈ 0.412 µM)	0.78 (≈ 0.824 µM)	3.12 (≈ 3.29 µM)	6.25 (≈ 6.6 µM)	1.56 (≈ 1.65 µM)	0.39 (≈ 0.412 µM)	< 0.05
